Reference: patent US4086239A, “Thiazole bis-phosphates and phosphonates, intermediates, and insecticidal compositions and methods” (priority 1977, dated 1978)

Experiments:
Type in all cases: in vivo
[1] = test system: Tobacco Budworm [Heliotis virescens (F.)]; experiment: Tobacco budworm leaf dip test; settings: % by weight in solution, larvae, 48 hours plus 5 days if survivors
Description: (§1) A test solution is prepared by dissolving the test compound in a 50-50 acetone-water solution. A section of a curly dock (Rumex crispus) leaf, aproximately 2.5 centimeters wide and 4 centimeters long, is immersed in the test solution for 2-3 seconds, then placed on a wire screen to dry. The dried leaf is placed in a petri dish containing a moistened piece of filter paper, and infested with 5 second-instar salt-marsh caterpillar larvae. Mortality of the larvae is recorded 48 hours later. If surviving larvae are still present, a piece of synthetic media is added to the dish and the larvae are observed for an additional 5 days in order to detect delayed effects of the test compound. The primary screening level for this test is 0.05% by weight of the test compound in the solution.
I. Tobacco Budworm [Heliotis virescens (F.)]
Larvae of the tobacco budworm are used in this test in a procedure identical to that used for salt-marsh caterpillar larvae, except that a Romaine lettace (Latua sativa) leaf section of approximately the same size as the curly dock leaf section is used in place of the latter. The primary screening level for this test is 0.1% by weight of the test compound in the solution.
(§2) For a particular insect, each compound was initially tested at the primary screening level. For the two-spotted mite, the testing stopped at this point. Those compounds showing less than 50% kill are represented in the table by the primary screening level preceded by a "greater than" sign. For those showing more than 50% kill, a "less than" sign is used. For all other insects those compounds showing greater than 50% kill at the primary screening level were then tested at successively lower levels, until the level was found at which approximately 50% kill was achieved. This level is listed as the LD50 (50% lethal dose) value in Table III. For those compounds showing approximately 50% kill at the primary screening level, the primary screening level itself is listed as the LD50.
In cases where this level was found, the level is reported as the LD50. […]

[2] = test system: German Cockroach [Blatella germanica (Linne)]; experiment: German cockroach spray insecticide evaluation; settings: % by weight in acetone-water spray; nymphs; mortality after 7 days
Description: B. German Cockroach [Blatella germanica (Linne)]
The test compound is diluted in a 50-50 acetone-water solution. Two milliliters of the solution are sprayed through a DeVilbiss type EGA hand spray gun into a circular cardboard cage contaning 10 1-month-old German Cockroach nymphs. The test cage is covered on the bottom with cellophane and the top with tulle netting. Percent mortality is recorded after 7 days. The primary screening level for this test is 0.1% by weight of the test compound in the acetone-water solution.
as §2
(§3) In cases where this level was found, the level is reported as the LD50. When the level of 50% kill was not found, the number listed is the highest concentration tested, whether primary screen or higher, preceded by a "greater than" sign to indicate that a higher level than reported must be used to achieve 50% kill.

[3] = test system: Lygus bug [Lygus hesperus (Knight)]; experiment: Lygus bug spray insecticide evaluation; settings: % by weight in acetone-water spray; adults; mortality after 48 hours
Description: C. Lygus bus [Lygus hesperus (Knight)]
The test compound is dissolved in a 50-50 acetone-water solution. Two cubic centimeters of the solution are sprayed through a DeVilbiss-type EGA hand spray gun into a circular cardboard cage covered on the bottom with cellophane and the top with tulle netting, containing one string bean pod and 10 adult lygus bugs. Percent mortality is recorded after 48 hours. The primary screening level for this test is 0.5% by weight of the test compound in the acetone-water solution.
as §2, §3

[4] = test system: Southern House Mosquito [Culex pipiens quinquefasciatus (Say)]; experiment: Southern house mosquito larvae test; settings: ppm by weight in aqueous solution, third-instar larvae, mortality after 48 hours
Description: K. Southern House Mosquito [Culex pipiens quinquefasciatus (Say)]
Insecticidal activity is determined using third-instar larvae of the mosquito (Culex pipiens quinquefasciatus). Ten larvae are placed in a 6-ounce, number 67 Dixie wax paper cup containing 100 milliliters of an aqueous solution of the test chemical. The treated larvae are stored at 70° F, and 48 hours later the mortality is recorded. The primary screening level for this test is 1 ppm by weight of the test compound in the solution.
as §2, §3

[5] = test system: Black Bean Aphid [Aphis fabae (Scop.)]; experiment: Direct spray assay on black bean aphid; settings: % by weight in acetone-water, mortality after 3 days
Description: D. Direct Spray Assay on Black Bean Aphid [Aphis fabae (Scop.)]
A nasturtium plant (Tropaeolum sp.), approximately 5 cm tall, is transplanted into sandy loam soil in a 3-inch clay pot and infested with 25-50 black bean aphids of mixed ages. Twenty-four hours later the plant is sprayed, to the point of runoff, with a 50-50 acetone-water solution of the test chemical. The treated plant is held in the greenhouse and mortality is recorded after 3 days. The primary screening level for this test is 0.05% by weight of the test compound in the acetone-water solution.
as §2, §3

[6] = test system: Two-Spotted Mite [Tetranychus urticae (Koch)]; experiment: Two-spotted mite plant dip test; settings: tested at primary screening level 0.05% only, < means more than 50% kill, > less than 50% kill, 7 days
Description: J. Two-Spotted Mite [Tetranychus urticae (Koch)]
A pinto bean plant (Phaseolus sp.), approximately 10 cm tall is transplanted into sandy loam soil in a 3-inch clay pot and infested with two-spotted mites of mixed ages and sexes. Twenty-four hours later the infested plants are inverted and dipped for 2-3 seconds in a 50-50 acetone-water solution of the test compound. The treated plant is held in a greenhouse for 7 days. Mortality is then determined for both the adult mites and the nynmphs hatching from eggs which were on the plants at the time of treatment. The primary screening level for this test is 0.05% by weight of the test compound in the acetone-water solution.
as §2

[7] = test system: Cabbage Looper [Trichoplusia ni (Hubner)]; experiment: Cabbage looper leaf dip test; settings: % by weight in solution, larvae, 48 hours plus 5 days if survivors
Description: as §1
H. Cabbage Looper [Trichoplusia ni (Hubner)]
The procedure for cabbage looper larvae is the same as that used for salt-marsh caterpillar larvae, except that a cotyledon of hyzini squash (Calabacita abobrinha) of approximately the same size as the curly dock leaf section is used in place of the latter. The primary screening level for this test is 0.1% by weight of the test compound in the solution.
as §2, §3

[8] = test system: Salt-marsh Caterpillar [Estigmene acrea (Druryl)]; experiment: Salt-marsh caterpillar leaf dip test; settings: % by weight in solution, larvae, 48 hours plus 5 days if survivors
Description: G. Salt-marsh Caterpillar [Estigmene acrea (Druryl)]
as §1, §2, §3

[9] = test system: Green Peach Aphid [Myzus persicae (Sulzer)]; experiment: Direct spray assay on green peach aphid; settings: % by weight in acetone-water, mortality after 3 days
Description: E. Direct Spray Assay on Green Peach Aphid [Myzus persicae (Sulzer)]
A radish plant (Rhaphanus sativus), approximately 2 cm tall, is transplanted into sandy loam soil in a 3-inch clay pot and infested with 25-50 green peach aphids of mixed ages. Twenty-four hours later the plant is sprayed, to the point of runoff, with a 50-50 acetone-water solution of the test compound. The treated plant is held in a greenhouse and mortality is recorded after 3 days. The primary screening level for this test is 0.05% by weight of the test compound in the acetone-water solution.
as §2, §3

[10] = test system: Housefly [Musca domestica (L.)]; experiment: Housefly insecticide evaluation; settings: per 25 female houseflies; mortality after 48 hours
Description: A. Housefly [Musca domestica (L.) ]
The test compound is diluted in acetone and an aliquot is pipetted onto the bottom of a 55 × 15 mm aluminum dish. To insure even spreading on the bottom of the dish, 1 ml of acetone containing 0.02% peanut oil is added. After all the solvent has evaporated, the dish is placed in a circular cardboard cage containing 25 1-day-old female houseflies. The cage is covered on the bottom with cellophane and the top with tulle netting, and contains a sugar-water saturated cotton plug for maintenance of the flies. Mortality is recorded after 48 hours. The primary screening level for this test is 100 micrograms of the test compound per 25 female houseflies.
as §2, §3

[11] = test system: Black Bean Aphid [Aphis fabae (Scop.)]; experiment: Systemic assay on black bean aphid; settings: ppm by weight in soil, mortality after seven days
Description: F. Systemic Assay on Black Bean Aphid [Aphis fabae (Scop.)]
The test chemical is diluted in acetone and an aliquot is thoroughly mixed into 500 grams of dry, sandy loam soil. The treated soil is placed in a pint ice cream carton and a nasturtium plant (Tropaeolum sp.) approximately 5 cm tall is transplanted into the carton. The plant is then infested with approximately 25 black bean aphids of mixed ages and placed in the greenhouse. Seven days later mortality is recorded. The primary screening level for this test is 10 ppm by weight of the test compound in the soil.
as §2, §3

CCOP(=O)(OCC)SCC(=O)Nc1csc(NC(=O)CSP(=O)(OCC)OCC)n1 [Compound 8]
Approximate LD50, TBW (tobacco budworm) [1]: > .1%
Approximate LD50, GR (German cockroach) [2]: > .1%
Approximate LD50, LB (Lygus bug) [3]: > .05%
Approximate LD50, MOS (Southern house mosquito) [4]: > 1.0 ppm
Approximate LD50, BBA (black bean aphid) [5]: .001%
Approximate LD50, 2SM (two-spotted mite) (2) eggs [6]: < .05%
Approximate LD50, 2SM (two-spotted mite) (1) post-embryonic [6]: < .05%
Approximate LD50, CL (cabbage looper) [7]: > .1%
Approximate LD50, SMC (salt-marsh caterpillar) [8]: > .05%
Approximate LD50, GPA (green peach aphid) [9]: .03%
Approximate LD50, HF (housefly) [10]: > 100 µg
Approximate LD50, BAS (bean aphid systemic) [11]: > 10 ppm

COP(=S)(OC)SCC(=O)Nc1csc(NC(=O)CSP(=S)(OC)OC)n1 [Compound 2, 2,4-Bis(O,O -dimethylphosphorodithioylacetamide)thiazole]
Approximate LD50, TBW (tobacco budworm) [1]: > .1%
Approximate LD50, GR (German cockroach) [2]: > .1%
Approximate LD50, LB (Lygus bug) [3]: > .05%
LC50 ([4]; read-out: Approximate LD50, MOS (Southern house mosquito)): > 1 µg/mL
Approximate LD50, BBA (black bean aphid) [5]: .002%
Approximate LD50, 2SM (two-spotted mite) (2) eggs [6]: > .05%
Approximate LD50, 2SM (two-spotted mite) (1) post-embryonic [6]: < .05%
Approximate LD50, CL (cabbage looper) [7]: > .1%
Approximate LD50, SMC (salt-marsh caterpillar) [8]: > .05%
Approximate LD50, GPA (green peach aphid) [9]: .03%
Approximate LD50, HF (housefly) [10]: > 100 µg
Approximate LD50, BAS (bean aphid systemic) [11]: > 10 ppm

CCOP(=S)(OCC)SCC(=O)Nc1csc(NC(=O)CSP(=S)(OCC)OCC)n1 [Compound 1]
Approximate LD50, TBW (tobacco budworm) [1]: > .1%
Approximate LD50, GR (German cockroach) [2]: > .1%
Approximate LD50, LB (Lygus bug) [3]: > .05%
Approximate LD50, MOS (Southern house mosquito) [4]: .8 ppm
Approximate LD50, BBA (black bean aphid) [5]: .05%
Approximate LD50, 2SM (two-spotted mite) (2) eggs [6]: < .05%
Approximate LD50, 2SM (two-spotted mite) (1) post-embryonic [6]: < .05%
Approximate LD50, CL (cabbage looper) [7]: > .1%
Approximate LD50, SMC (salt-marsh caterpillar) [8]: > .05%
Approximate LD50, HF (housefly) [10]: > 100 µg
Approximate LD50, BAS (bean aphid systemic) [11]: > 10 ppm

COP(=S)(OC)SCC(=O)Nc1nc(NC(=O)CSP(=S)(OC)OC)c(-c2ccccc2)s1 [Compound 9]
Approximate LD50, MOS (Southern house mosquito) [4]: > 1.0 ppm
Approximate LD50, BBA (black bean aphid) [5]: .2%
Approximate LD50, 2SM (two-spotted mite) (2) eggs [6]: < .05%
Approximate LD50, 2SM (two-spotted mite) (1) post-embryonic [6]: > .05%
Approximate LD50, CL (cabbage looper) [7]: > .5%
Approximate LD50, SMC (salt-marsh caterpillar) [8]: > .05%
Approximate LD50, GPA (green peach aphid) [9]: .15%
Approximate LD50, HF (housefly) [10]: > 100 µg
